Experiment [1] deals with HCC mouse model. The settings on record: 0.1 and 1.0 mg/kg; PO; cited from earlier work.
The target of experiment [2] is T1, hOAT (Homo sapiens, UniProt P04181).
T1 construct: made in house; host or cells: E. coli BL21(DE3)
T1 sequence (P04181 26-439): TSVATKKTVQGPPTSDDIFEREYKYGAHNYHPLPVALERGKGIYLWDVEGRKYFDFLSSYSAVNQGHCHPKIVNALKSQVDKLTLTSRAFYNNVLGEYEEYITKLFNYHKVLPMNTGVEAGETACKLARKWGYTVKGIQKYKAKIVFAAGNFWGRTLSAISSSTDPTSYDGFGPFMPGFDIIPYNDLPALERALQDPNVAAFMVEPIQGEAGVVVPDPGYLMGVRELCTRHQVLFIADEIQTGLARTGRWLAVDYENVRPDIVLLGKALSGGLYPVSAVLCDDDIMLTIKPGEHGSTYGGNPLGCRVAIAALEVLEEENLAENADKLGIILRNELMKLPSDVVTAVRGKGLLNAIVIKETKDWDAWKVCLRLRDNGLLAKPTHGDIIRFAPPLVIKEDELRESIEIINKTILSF
The experiment is described as follows: Time-dependent inactivation of hOAT. Type of experiment: biochemical. The settings on record: for kinact/KI: inactivation efficiency; for KI (inactivator concentration for half-maximal inactivation): inhibitor concentration for half-maximal inactivation; for KI (inactivator concentration for half-maximal inactivation) / kinact: mean and standard error. As for the experimental part:
(§1) All reagents for enzyme purification and assays were purchased from Sigma-Aldrich (St. Louis, MO, USA). Human OAT (0.672 mg/mL) was purified from E. coli BL21 (DE3) cells following the procedure described above, and coenzyme human recombinant pyrroline 5-carboxylate reductase (PYCRI) were expressed, grown, and purified according to a literature procedure.^4 γ-Aminobutyric acid aminotransferase (GABA-AT, 0.4 mg/mL) was purified from pig brain following a procedure described previously^5, and coenzyme succinic semialdehyde dehydrogenase (SSDH) was purified from GABase (catalog No. G7509-25UN, Sigma-Aldrich), a commercially available mixture of SSDH and GABA-AT, using a known procedure.^6 Commercially available L-aspartate aminotransferase (Asp-AT) from the porcine heart (catalog No. G2751-2KU, Sigma-Aldrich) and the desired assay coenzyme malic dehydrogenase from porcine (catalog No. M2634-5KU, Sigma-Aldrich), and L-alanine aminotransferase (Ala-AT) from the porcine heart (catalog No. G8255-200UN, Sigma-Aldrich) and the desired assay coenzyme lactate dehydrogenase from porcine (catalog No. 427211-50KU, Sigma-Aldrich) were used directly without further purification. All the enzyme assays for the inactivation, partition ratio, and dialysis experiment were recorded on a Synergy H1 hybrid multimode microplate reader (Biotek, USA) with transparent 96-well plates.
Time-dependent inactivation against hOAT was performed using an optimized procedure published previously.^7 10 μL of hOAT (0.025 mg/mL) was preincubated with 10 μL of various concentrations of tested compounds in 100 mM potassium pyrophosphate buffer (pH 8.0, 5 mM α-ketoglutarate, and 5 mM β-mercaptoethanol) at 25° C. in a 96-well plate. At time intervals, 80 μL of assay solution containing PYCR^1 (0.5 μg), 1 mM NADH, and 25 mM L-ornithine in the abovementioned potassium pyrophosphate buffer were added to the incubation mixture and assayed for OAT activity at 37° C. for 30 min. The change in UV absorbance at 340 nm at 37° C. based on the conversion of NADH to NAD was monitored by a microplate reader. All assays were performed in duplicate, and the remaining OAT activity at each preincubation time at each inhibitor concentration was averaged. The natural logarithm of the percentage of the remaining OAT activity was plotted against the preincubation time at each inhibitor concentration to obtain the kobs (slope) value for each concentration. The kobs value is the rate constant describing the inactivation at each inhibitor concentration. kobs is replotted against the inhibitor concentration using nonlinear regression analysis using GraphPad Prism 8.0. K1 and kinact values were estimated from equation (1)
where kinact is the maximal rate of inactivation, K1 is the inhibitor concentration required for half-maximal inactivation, and [I] is the preincubation concentration of the tested compound.

The target of experiment [3] is T2, GABA-AT (Sus scrofa, UniProt P80147). The experiment is described as follows: Reversible inhibition of GABA-AT (coupled assay with SSDH). To be noted: for Ki: Ki = IC50/(1 + [S]/Km), 9-point assay. The arrangement: was purified from pig brain following a procedure described previously; from tissue; host or cells: pig brain. The class given is biochemical, pig. As for the experimental part: as §1
96-well plates were loaded with 80 μL of an assay mixture containing excess SSDH, 1 mM NADP^+, 11.1 mM GABA, and 10 μL of various concentrations of the tested compounds in 50 mM potassium pyrophosphate buffer (pH 8.5, 5 mM α-ketoglutarate, and 5 mM β-mercaptoethanol). […] The microplate was shaken at 25° C. for 1 min, and the remaining enzyme activity was determined by observing the change in absorbance at 340 nm at 25° C. based on the conversion of NADP^+ to NADPH. […] Subsequent Ki values were determined using equation (2) All assays were performed in duplicate.

Experiment [4] relates to aspartate aminotransferase (Asp-AT). The settings on record: up to 4 mM; cited from earlier work.
Experiment [5] has as its target T1, hOAT. The settings on record: data extracted from Reference 9; cited from earlier work.
The subject of experiment [6] is alanine aminotransferase (Ala-AT). To be noted: up to 4 mM; cited from earlier work.
Experiment [7] addresses T1, hOAT. To be noted: data extracted from Reference 9; cited from earlier work. This is another data set of the same source.
Experiment [8] deals with T1, hOAT. The experiment is described as follows: Fluoride ion release assay. Type of experiment: biochemical. The settings on record: without α-KG; triplicate, mean with standard deviation. As for the experimental part: The fluoride ion release assay was conducted using previous protocols.^10 The final concentration of enzyme in the sample was determined via BCA protein assay kit (Pierce, cat: 23225). A calibration curve of voltage (V, mV) was generated from varying concentrations of NaF (F, μM). For accurate detection of fluoride ion concentration, 10 μM of fluoride ion was added to each control and sample The number of fluoride ions released per active site was calculated by the ratio of the fluoride ion release concentration and enzyme concentration.

Experiment [9] deals with T1, hOAT. The experiment is described as follows: Partition ratio experiment (titration of hOAT). To be noted: in the presence of α-KG. Type of experiment: biochemical. As for the experimental part: FIG. 9. Titration of hOAT with SS-1-148. The loss of enzyme activity was measured as a function of the ratio of […] to enzyme concentration. Linear regression was used on the linear portion of the curves to obtain the X-intercept, which was the turnover number (partition ratio=turnover number−1).
The partition ratio was calculated using previous protocols.^8-10

Experiment [10] deals with T1, hOAT. To be noted: literature; cited from earlier work.
The target of experiment [11] is T2, GABA-AT. To be noted: literature, cited from earlier work.

SMILES strings stand for the structures. Structures can show the parent of a compound that is named as a salt. Where two headings read alike, the source gives them in different places. Marks after values point to notes of the source that are not given here.

T2 sequence (P80147 29-500): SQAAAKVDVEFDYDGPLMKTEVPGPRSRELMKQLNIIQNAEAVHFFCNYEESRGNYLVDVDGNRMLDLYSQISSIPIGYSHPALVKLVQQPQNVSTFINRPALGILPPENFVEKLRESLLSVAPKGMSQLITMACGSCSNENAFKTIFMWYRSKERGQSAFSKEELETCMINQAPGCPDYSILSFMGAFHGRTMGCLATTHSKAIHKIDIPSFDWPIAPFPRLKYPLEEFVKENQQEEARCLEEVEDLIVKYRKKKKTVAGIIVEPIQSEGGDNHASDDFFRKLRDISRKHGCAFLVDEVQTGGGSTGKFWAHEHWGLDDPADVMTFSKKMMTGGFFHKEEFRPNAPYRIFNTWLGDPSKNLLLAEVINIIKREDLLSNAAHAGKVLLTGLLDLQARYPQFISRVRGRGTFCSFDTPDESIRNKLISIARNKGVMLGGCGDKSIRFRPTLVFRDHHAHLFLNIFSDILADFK

`N[C@H]1C[C@@H](C(=O)O)CC1=C(C(F)(F)F)C(F)(F)F` [BCF3, (1S,3S)-3-Amino-4-(hexafluoropropan-2-ylidenyl)-cyclopentane-1-carboxylic Acid]: in [1], the “serum AFP levels” value is “remarkably decreased” and the tumor growth result was “inhibited tumor growth”. For the same compound, in experiment [2], the kinact/KI was 16.7 M⁻¹ s⁻¹, the KI (inactivator concentration for half-maximal inactivation) is 90 ± 30 µM and the kinact was 0.0015 s⁻¹. Also, the Ki in experiment [3] turned out to be 5160 µM. Besides, the “inhibition on aspartate aminotransferase (Asp-AT)” value in experiment [4] was “no inhibition”. The Fluoride ion release in experiment [5] is on record as 79^b. Also, the “inhibition on alanine aminotransferase (Ala-AT)” value in [6] is “no inhibition”. In experiment [7], the Partition ratio is listed as 12^b.
Take `N[C@H]1C[C@@H](C(=O)O)CC1(F)F` [Compound 4, (1R,4S)-4-Amino-3,3-difluorocyclopentanecarboxylic acid hydrochloric acid salt, reference compound]: the Fluoride ion release in [8] came out at 3395± 31.
On to `N[C@H]1CC(C(=O)O)=CC1(F)F` [Compound 5, (S)-4-Amino-3,3-difluorocyclopent-1-enecarboxylic acid], for which the Fluoride ion release in experiment [8] was found to be 754 ± 57. In experiment [2], the kinact/KI was 0.233 M⁻¹ s⁻¹, the KI (inactivator concentration for half-maximal inactivation) worked out at 2130 ± 900 µM and the kinact is 0.0005 s⁻¹. Also, in [3], the “inhibitory activity against GABA-AT weaker than cyclopentane-based 4” value was “about 10 times” and the Ki turned out to be 1340 µM. Moreover, in experiment [9], the Partition ratio stood at 817.
With `N[C@H]1C=C(C(=O)O)CCC1(F)F` [WZ-2-051, (S)-3-amino-4,4-difluorocyclohex-1-enecarboxylic acid], in [10], the “improvement in inactivation efficiency (kinact/K1 ratio) against hOAT compared to BCF3” value is 23 fold. Further, in [11] (hOAT over GABA-AT), the “selectivity over GABA-AT” value is on record as 13.3 fold. Further, the “type of inhibition on GABA-AT” value in experiment [11] was “apparent irresponsible inhibition”.

What is called kinact/KI is the second-order rate constant of inactivation. The kinact is the maximal first-order rate at which the target is inactivated. As usually defined, the Ki is a measure of affinity in units of concentration, obtained from inhibition or displacement.

The record behind these values is US20240174596A1 (Northwestern University, priority 2021, published 2024).
